The values below come from paper PMC8839746, “Discovery and Characterization of a Cryptic Secondary Binding Site in the Molecular Chaperone HSP70” (Molecules, 2022).

For data set [1], the target named is T1, HSC70-NBD (Homo sapiens, UniProt P11142).
T1 construct: made in house
Kind of data set: SPR binding to wild-type HSC70-NBD. The procedure: (§1) The HSC70-NBD variants used in SPR were produced and purified as previously described. All surface plasmon resonance (SPR) experiments were carried out on a Biacore T100 enhanced to T200 sensitivity (GE Life Sciences, Amersham, UK), and amine coupling chemistry was used to immobilize the proteins on a research grade CM5 sensor chip. The running buffer was phosphate-buffered saline (10-mM NaHPO4-NaH2PO4, pH 7.4, 2.7-mM KCl and 137-mM NaCl), and the chip’s surface was activated for 10 min using a 1:1 mixture of 100-mM N-hydroxysuccinimide and 400-mM 1-ethyl-3-(3-dimethylaminopropyl)-carbodiimide. Wild-type HSC70-NBD and the S275W mutant proteins were injected for 10 min at a concentration of 2 μM in a 10-mM sodium acetate buffer, pH 5.0 with 100-μM ADP as protection for the active site lysines. Finally, the surface was blocked via an injection of 1 M ethanolamine, pH 8.5 for 7 min. The flow rate was maintained at 10 μL/min for all the above procedures. On average, ~12,000 response units (RU) of the wild-type and the mutant proteins were immobilized on the chip. Flow cell one was left unmodified as the reference surface. Following protein immobilization, the running buffer was changed to phosphate-buffered saline containing 0.05% Tween20 (v/v) and 5% DMSO.
(§2) To determine binding constants (KD) for the compounds, all liquid handling was carried out using an ECHO 550 acoustic liquid dispenser (Labcyte, Dublin, Ireland), and compounds were added to 384-well polypropylene V-bottomed plates (Greiner, Stonehouse, UK), which were used as sample plates for the SPR experiments. Fresh 100-mM DMSO stocks of each compound were prepared and used to generate eight-point concentration responses ranging from 25 μM to 1000 μM or from 6.25 μM to 500 μM. For adenosine, the concentration range was 50 μM–2000 μM from a 200-mM stock in DMSO, and for VER155008, a stock solution of 0.25 mM in DMSO was prepared with a concentration range of 0.0625–2.5 μM. The buffer mix was made compatible with the Biacore running buffer, and the experiments were performed at a flow rate of 30 μL/min, a sample injection time of 60 s and a dissociation time of 200 s. The CM5 surface was not regenerated between sample injections. Binding constants (KD) were calculated from the DMSO-corrected and background-normalized binding curves generated from the sensorgrams under equilibrium conditions using the 1:1 binding model in Biacore software version 2 (GE Life Sciences, Amersham, UK).
On the technique in general: SPR reads the build-up and loss of mass on a sensor chip optically.

Data set [2] concerns the target T2, S275W HSC70-NBD (Homo sapiens, UniProt P11142, S275W).
T2 construct: made in house
Kind of data set: SPR binding to S275W mutant HSC70-NBD. As for the experimental part:
as §1, §2

For data set [3], the target named is HSP70. On the set-up: method as in PMID 19256508. The settings on record: cited from earlier work.
Data set [4] deals with T2, S275W HSC70-NBD. On the set-up: method as in PMID 27708405. The settings on record: S275W mutation; cited from earlier work.
A short description of data set [5]: Aggregation check in LO-NMR experiments. In kind it is physicochemical. The settings on record: tested concentration 200 µM. The procedure:
(§3) To confirm the binding of compounds to HSP72-NBD, a series of CPMG and WaterLOGSY experiments were performed. Compounds were assayed at 200 μM in the presence or absence of 10-μM HSP72-NBD. […] of ATP were also included in the competition experiments. The total assay volume was 200 μL, and the experiments were performed in 3-mm NMR tubes. The buffer was 25-mM Tris, pH 7.5, 50-mM NaCl, 10% D2O and 100 μM of DTT in deionized water. NMR experiments were conducted at a ^1H frequency of 600 MHz using a Bruker Avance 600 spectrometer (Bruker, Bilerica, MA, USA) equipped with a 5-mm TCI Cryo-probe. All data were acquired and processed using Topspin (Bruker, Bilerica, MA, USA) and MNova (Mestrelab Research SL, Santiago de Compostela, Spain). The relaxation-edited 1H-NMR spectrum was acquired at 298 K using the CPMG sequence with a spin-lock time of 600 ms. The water signal was suppressed using pre-saturation during the relaxation delay (2 s) and by using the Watergate sequence subsequent to the CPMG sequence. For each spectrum, 64 transients were acquired.

The subject of data set [6] is T3, HSP72-NBD.
T3 construct: GST (glutathione-S-transferase), PreScission site (N, cleaved yes); made in house; host or cells: BL21-AI E. coli
Kind of data set: CPMG relaxation-edited ligand-observed 1H NMR binding and ATP competition. More on the design: species or system human. The procedure: as §3

For data set [7], the system named is T3, HSP72-NBD. Put plainly: waterLOGSY ligand-observed NMR binding. More on the design: species or system human. The settings on record: ligand 200 μM, HSP72-NBD 10 μM. The procedure:
as §3

Data set [8] is described as follows: Kinetic solubility in pH 7.4 phosphate buffer by quantitative NMR. The data set is classed as physicochemical. The settings on record: phosphate-buffered saline with 5% DMSO, aqueous with cosolvent or surfactant or cyclodextrin, kinetic from dmso stock, NMR method. As for the experimental part:
Nine microliters of a 10-mM DMSO solution of 1 was pipetted into one well of a 384-deep well plate (Greiner, part-no. 781270). one hundred and seventy-one microliters of aqueous buffer (137-mM NaCl, 2.7-mM KCl and 10-mM phosphate buffer solution (pH 7.4)) were pipetted into the same well and mixed 3 times by pipette to give a 500-µM solution of 1 with 5% DMSO. The plate was centrifuged (1000 rpm for 1 min, Eppendorf 5810C) and then sealed and incubated at room temperature for 20 h without shaking. The plate was centrifuged (1000 rpm for 1 min, Eppendorf 5810R), and 165 µL of the supernatant was transferred to a 3-mm NMR tube (Bruker, Part No. Z112272) using a liquid handler SamplePro Tube SJ S (Bruker, Bilerica, MA, USA)). The concentration of 1 was measured by quantitative ^1H-NMR using a single external standard (200-µM caffeine (Sigma C1778, Merck Life Science UK, Gillingham, UK)) in PBS (pH 7.4) with 1% DMSO-d6). NMR data was collected on a Bruker Avance Neo 600 spectrometer equipped with a 5-mm TCI Cryo-probe. The ^1H spectrum was referenced to the internal deuterated solvent. The operating frequency for ^1H was 600 MHz. […] The quantitative ^1H-NMR spectrum was acquired using a Bruker standard 1D lc1pngppsf2 pulse sequence with 32 scans. […] The quantitative 1H-NMR data analysis was carried out in Mnova 14.1 (Mestrelab Research SL, Santiago de Compostela, Spain).

The mark [9] stands for this setting: mean (±SD), n = 3 unless marked n = 2, read-out: HSC70-NBD SPR KD.
[10] abbreviates: n = 2 determinations unless marked single, read-out: HSC70-NBD S275W SPR KD.

SMILES strings stand for the structures. Values after ≈ are worked out from the molar mass of the structure shown. Where two headings read alike, the source gives them in different places.

T2 sequence (P11142 2-386 S275W limits assumed): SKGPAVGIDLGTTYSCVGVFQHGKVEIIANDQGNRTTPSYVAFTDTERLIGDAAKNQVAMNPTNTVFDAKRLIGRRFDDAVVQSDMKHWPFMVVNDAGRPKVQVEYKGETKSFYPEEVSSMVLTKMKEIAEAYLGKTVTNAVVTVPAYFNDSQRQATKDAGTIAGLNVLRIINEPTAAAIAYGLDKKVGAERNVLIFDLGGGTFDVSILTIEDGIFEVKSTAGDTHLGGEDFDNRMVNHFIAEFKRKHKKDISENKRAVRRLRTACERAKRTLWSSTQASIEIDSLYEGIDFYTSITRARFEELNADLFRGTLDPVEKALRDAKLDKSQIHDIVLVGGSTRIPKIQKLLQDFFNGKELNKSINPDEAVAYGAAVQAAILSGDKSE
T1 sequence (P11142 2-386 limits assumed): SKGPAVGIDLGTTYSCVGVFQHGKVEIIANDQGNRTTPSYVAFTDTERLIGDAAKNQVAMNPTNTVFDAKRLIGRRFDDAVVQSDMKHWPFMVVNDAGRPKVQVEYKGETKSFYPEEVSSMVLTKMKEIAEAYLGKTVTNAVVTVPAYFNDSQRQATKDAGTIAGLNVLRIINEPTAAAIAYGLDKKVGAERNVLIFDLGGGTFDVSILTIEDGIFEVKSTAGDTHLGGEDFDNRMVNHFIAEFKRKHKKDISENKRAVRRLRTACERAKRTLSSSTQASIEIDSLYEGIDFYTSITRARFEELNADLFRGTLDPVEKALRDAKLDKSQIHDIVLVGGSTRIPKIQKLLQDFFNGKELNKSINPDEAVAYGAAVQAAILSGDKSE

The term Kd denotes a measure of binding affinity in units of concentration. In the case of `COc1cccc(-c2cc(CNC(=O)c3c(C)oc4c3C(=O)CCC4)on2)c1` [Compound 8], the Kd in data set [1] (setting [9]) came out at 99 µM; in [2] (setting [10]) it was 86 µM. The Ligand Efficiency in data set [1] (vHTS hits, HSC70-NBD) amounted to 0.2 kcal/mol per heavy atom.
As for `N#Cc1ccc(COC[C@H]2O[C@@H](n3c(NCc4ccc(Cl)c(Cl)c4)nc4c(N)ncnc43)[C@H](O)[C@@H]2O)cc1` [VER-155008], the equilibrium dissociation constant (Kd) in data set [3] is 0.5 µM.
For the molecule `Nc1ncnc2c1ncn2[C@@H]1O[C@H](CO)[C@@H](O)[C@H]1O` [adenosine], the “Binding of adenosine to S275W mutant by SPR” value in data set [4] was “abolished”.
For orientation: kinetic solubility means the concentration staying in solution when a stock, usually in DMSO, is diluted into the medium. The term melting point denotes the temperature, or range, at which the solid turns liquid. With `NC(=O)N1CCN(c2nc(-c3ccccc3)cs2)CC1` [Compound 1, 4-(4-Phenylthiazol-2-yl)piperazine-1-carboxamide], the melting point was 131 °C (dec.). The “Aggregation in LO-NMR experiments” value in data set [5] is on record as “did not show aggregation”. For the same molecule, the “SPR binding behaviour (Langmuir isotherm)” value in [1] (concentration-response SPR, HSC70-NBD) was “non-saturating behavior”. In addition, in data set [6] (1 (200 μM) + HSP72-NBD (10 μM), thiazole C5 proton), the “Reduction in 1H NMR peak intensity relative to 1 alone, Peak a” value is recorded as 58%. Moreover, in data set [6] (1 + HSP72-NBD), the “Reduction in 1H NMR peak intensity relative to 1 alone, Peak b” value came out at 7%; the “Reduction in 1H NMR peak intensity relative to 1 alone, Peak c” value worked out at 14%; the “Reduction in 1H NMR peak intensity relative to 1 alone, Peak d” value worked out at 13%. Further, in data set [6] (1 + HSP72-NBD + ATP), the “Reduction in 1H NMR peak intensity relative to 1 alone, Peak a” value was 8%; the “Reduction in 1H NMR peak intensity relative to 1 alone, Peak b” value was found to be 12%; the “Reduction in 1H NMR peak intensity relative to 1 alone, Peak c” value is listed as 2%; the “Reduction in 1H NMR peak intensity relative to 1 alone, Peak d” value is recorded as 2%. Moreover, the “waterLOGSY NOE sign inversion on addition of HSP72-NBD” value in data set [7] was “binding to the protein”. In addition, the solubility (kinetic) at 20 h in [8] worked out at 291 µM (≈ 83.9 µg/mL).
Regarding `CC(C)(O)C#Cc1cccc(C(=O)NCc2ccc(-n3cncn3)cc2)c1` [Compound 5], the Kd in data set [1] (setting [9]) stood at 295 µM; in data set [2] (setting [10]) it was 176 µM. For the same molecule, the Ligand Efficiency in data set [1] (vHTS hits, HSC70-NBD) was 0.19 kcal/mol per heavy atom.
As for `CC(C)c1csc(CCNC(=O)c2cccc(-c3cncc(O)n3)c2)n1` [Compound 4], the Kd in data set [1] (setting [9]) worked out at 406 µM; in [2] (setting [10]) it was 385 µM. Also, the Ligand Efficiency in data set [1] (vHTS hits, HSC70-NBD) came to 0.18 kcal/mol per heavy atom.
Consider `CNc1nc(C)cc(-c2cccc(C(=O)NCCc3ccc(C)o3)c2)n1` [Compound 7], for which the values for the Kd in [1] (setting [9]) and in data set [2] (setting [10]) were 134 µM and 159 µM, respectively. The Ligand Efficiency in [1] (vHTS hits, HSC70-NBD) amounted to 0.21 kcal/mol per heavy atom.
For `NC(=O)N1CCN(c2nc(-c3ccc(C#CCN4CCOCC4)cc3)cs2)CC1` [Compound 3, 4-[4-[4-(3-Morpholinoprop-1-ynyl)phenyl]thiazol-2-yl]piperazine-1-carboxamide], the dissociation constant Kd in data set [1] (SPR, WT HSC70-NBD, single determination, read-out: KD HSC70-NBD) came to 388 µM. The Ligand Efficiency in [1] (calculated for binding to WT HSC70-NBD) is 0.16 kcal/mol per heavy atom. Further, in [6] (3 + HSP72-NBD), the “Change in NMR signal intensity for 3, Peak a” value was found to be 41%; the “Change in NMR signal intensity for 3, Peak b” value amounted to 36%; the “Change in NMR signal intensity for 3, Peak c” value was 31%. For the same molecule, in [6] (3 + HSP72-NBD + ATP), the “Change in NMR signal intensity for 3, Peak a” value is listed as 5%; the “Change in NMR signal intensity for 3, Peak b” value is recorded as 22%; the “Change in NMR signal intensity for 3, Peak c” value amounted to 7%. For the same molecule, the Kd in [2] (SPR, single determination, read-out: KD S275W HSC70) was determined as 352 µM.
Take `Nc1ncnc2c1ncn2[C@@H]1O[C@H](COP(=O)(O)OP(=O)(O)O)[C@@H](O)[C@H]1O` [ADP]: the dissociation constant (Kd) in data set [3] is 0.5 µM.
On to `c1ccc(-c2ccc(Cn3nnnc3N3CCCC(c4ncc[nH]4)C3)cc2)cc1` (stereo not shown) [Compound 6], for which the Kd in data set [1] (setting [9]) was determined as 13 µM; in data set [2] (setting [10]) it was 12 µM. Moreover, the Ligand Efficiency in data set [1] (vHTS hits, HSC70-NBD) turned out to be 0.24 kcal/mol per heavy atom.
